This note sets out measurements from patent US20250107525A1, “CARBOXYLIC ACID-DERIVED KETO-DIESTERS AND USES THEREOF” (The United States of America, as represented by the …, priority 2023, published 2025).

Entries after “also recorded” stand apart in the source; their conditions may differ.

Assay [1] relates to monocot bentgrass (Agrostis stolonifera). As to the kind of experiment: primary bioassay, bentgrass seeds exposed to 1000 μM solution for 7 days. Type of assay: in vivo. The note with it: for growth of bentgrass seedlings: compared to negative controls H2O or 10% acetone. How it is done: The phytotoxic activity of compounds belonging to formula (III), (V), or (VII) classes were evaluated in a primary bioassay. The synthetic triketone herbicides mesotrione and sulcotrione were used as positive controls. The seeds of monocot bentgrass (Agrostis stolonifera) and dicot Arabidopsis (Arabidopsis thaliana) were exposed for 7 days to 1000 μM solution of each chemical. […] Chlorosis of treated seedlings is a common symptom of HPPD enzyme inhibition, and the obtained results are an initial confirmation this mode of action for these new compounds. Next, a detailed assessment of phytotoxic activity of potential herbicide candidates was accomplished by measurement a growth of duckweed (Lemna paucicostata) frond surface (Table 1). Mesotrione and sulcotrione were used as positive controls.
(§1) The synthetic triketone herbicides mesotrione and sulcotrione were used as positive controls. For comparative purposes, water as well as 10% acetone in water were used as negative controls. The seeds of monocot bentgrass (Agrostis stolonifera) and dicot Arabidopsis (Arabidopsis thaliana) were exposed for 7 days to 1000 μM solution of each chemical. […] Chlorosis of treated seedlings is a common symptom of a typical HPPD enzyme inhibition, and the obtained results are an initial confirmation this mode of action for these new compounds.
The synthetic triketone herbicides mesotrione and sulcotrione were used as positive controls. For comparative purposes, water as well as 10% acetone in water were used as negative controls. The seeds of monocot bentgrass (Agrostis stolonifera) and dicot Arabidopsis (Arabidopsis thaliana) were exposed for 7 days to 1000 μM solution of each chemical.
as §1, with “The phytotoxic activity of compounds belonging to formula (VII) (compounds (VII-1) and (VII-2)) was evaluated in a primary bioassay. The synthetic” for “The synthetic”

In assay [2] the test system is duckweed (Lemna paucicostata). As to the kind of experiment: secondary bioassay, dose-response curve based on growth rate of duckweed frond surface. The note with it: for IC50: Lemna aequinoctialis, growth rate of duckweed (Lemna paucicostata) frond surface, read-out: IC50 (μM), herbicidal activity in a secondary bioassay; for activity compared with commercial herbicides bentazon, clomazone, glyphosate, glufosinate, asulam, chloropropham and EPTC in the same bioassay: comparison with data of Michel, A., et al. (2004). Type of assay: in vivo. As for the experimental part: The phytotoxic activity of compounds belonging to formula (III), (V), or (VII) classes were evaluated in a primary bioassay. […] The seeds of monocot bentgrass (Agrostis stolonifera) and dicot Arabidopsis (Arabidopsis thaliana) were exposed for 7 days to 1000 μM solution of each chemical. […] Next, a detailed assessment of phytotoxic activity of potential herbicide candidates was accomplished by measurement a growth of duckweed (Lemna paucicostata) frond surface (Table 1).
Next, a detailed assessment of the phytotoxic activity of the potential herbicide candidates was done by calculating dose-response curve base on growth rate of duckweed (Lemna paucicostata) frond surface.
Next, a detailed assessment of the phytotoxic activity of the potential herbicide candidates was done by calculating dose-response curves base on growth rate of duckweed (Lemna paucicostata) frond surface.
Next, a detailed assessment of the phytotoxic activity of the potential herbicide candidates was done by calculating dose-response curve based on the growth rate of duckweed (Lemna paucicostata) frond surface.

The term IC50 denotes the point on the concentration scale where inhibition reaches its midpoint.

Take `CC1(C)OC(=O)C(=C(O)c2ccc(S(C)(=O)=O)cc2Cl)C(=O)O1` [III-1, 5-(2-chloro-4-(methylsulfonyl)benzoyl)-2,2-dimethyl-1,3-dioxane-4,6-dione]: in assay [1], the “chlorosis of bentgrass seedlings” value is reported as “did not develop chlorosis” and the “growth of bentgrass seedlings” value is “growth of some of them was reduced”.

Take `CC1(C)OC(=O)C(=C(O)c2ccc(C(F)(F)F)cc2[N+](=O)[O-])C(=O)O1` [III-2, 2,2-dimethyl-5-(2-nitro-4-(trifluoromethyl)benzoyl)-1,3-dioxane-4,6-dione]: in assay [1], the “chlorosis of bentgrass seedlings” value is “most of them were chlorotic; also recorded: most of them developed symptoms of chlorosis” and the “growth of bentgrass seedlings” value is “significantly impacted growth; also recorded: significantly reduced growth”. Further, in assay [2], the IC50 is 1.9 µM; the “activity compared with commercial herbicides bentazon, clomazone, glyphosate, glufosinate, asulam, chloropropham and EPTC in the same bioassay” value is “more active”. Consider `CC1(C)OC(=O)C(=C(O)c2ccc(S(C)(=O)=O)cc2[N+](=O)[O-])C(=O)O1` [III-3, 2,2-dimethyl-5-(4-(methylsulfonyl)-2-nitrobenzoyl)-1,3-dioxane-4,6-dione], for which, in assay [1], the “chlorosis of bentgrass seedlings” value was “did not develop chlorosis” and the “growth of bentgrass seedlings” value is recorded as “growth of some of them was reduced”.

In the case of `CC1(C)OC(=O)C(=C(O)CCc2ccccc2)C(=O)O1` [III-4, 2,2-dimethyl-5-(3-phenylpropanoyl)-1,3-dioxane-4,6-dione], the IC50 in assay [2] worked out at 13.2 µM. Still for that read-out and setting: as for `O=C1OC2(CCCC2)OC(=O)C1=C(O)CCc1ccccc1` [III-5, 8-(3-phenylpropanoyl)-6, 10-dioxaspiro [4.5] decane-7,9-dione], the figure is 17.9 µM. `CCCC1(CCC)OC(=O)C(=C(O)CCc2ccccc2)C(=O)O1` [III-6, 5-(3-phenylpropanoyl)-2,2-dipropyl-1,3-dioxane-4,6-dione]: in assay [2], the IC50 was determined as 2.6 µM; the “activity compared with commercial herbicides bentazon, clomazone, glyphosate, glufosinate, asulam, chloropropham and EPTC in the same bioassay” value was “more active”.

For `CC(C)CC(O)=C1C(=O)OC(C)(C)OC1=O` [VII-1, 2,2-dimethyl-5-(3-methylbutanoyl)-1,3-dioxane-4,6-dione], in assay [2], the half-inhibitory concentration (IC50) came to 1.14 µM.

Regarding `CC(C)CC(O)=C1C(=O)OC2(CCCC2)OC1=O` [VII-2, 8-(3-methylbutanoyl)-6,10-dioxaspiro [4.5] decane-7,9-dione], the IC50 in assay [2] came to 3.3 µM.
